These results are taken from patent US12331033B2, “Inhibitors of SARM1” (Disarm Therapeutics, Inc., priority 2020, dated 2025).

The target in the assay is SARM1 (ARM-SAM-TIR) (Homo sapiens (Human), UniProt Q6SZW1). Description: ARM-SAM-TIR SARM1 IC50 assay (NADase activity, NAD+ cleavage, RapidFire MS). In kind it is biochemical. Conditions: ARM-SAM-TIR lysate 5 μg/mL, 2 h pre-incubation, 5 μM NAD+, 2 hr room temperature. The method, then: This Example describes an assay of ARM-SAM-TIR NADase activity and use of this assay to measure the efficacy of compounds of Formula I or Formula I′ to block SARM1 mediated NAD+ cleavage. This assay was optimized in such a way as to characterize the efficacy of the compounds in Formula I or Formula I′ to inhibit SARM1 activity and to calculate an IC50 value for each compound. This assay makes use of full length SARM1, which encompasses the ARM, SAM and TIR domains.
Sequence of SARM1 (ARM-SAM-TIR) (Q6SZW1 other isoform, or with tags, fused parts or gaps): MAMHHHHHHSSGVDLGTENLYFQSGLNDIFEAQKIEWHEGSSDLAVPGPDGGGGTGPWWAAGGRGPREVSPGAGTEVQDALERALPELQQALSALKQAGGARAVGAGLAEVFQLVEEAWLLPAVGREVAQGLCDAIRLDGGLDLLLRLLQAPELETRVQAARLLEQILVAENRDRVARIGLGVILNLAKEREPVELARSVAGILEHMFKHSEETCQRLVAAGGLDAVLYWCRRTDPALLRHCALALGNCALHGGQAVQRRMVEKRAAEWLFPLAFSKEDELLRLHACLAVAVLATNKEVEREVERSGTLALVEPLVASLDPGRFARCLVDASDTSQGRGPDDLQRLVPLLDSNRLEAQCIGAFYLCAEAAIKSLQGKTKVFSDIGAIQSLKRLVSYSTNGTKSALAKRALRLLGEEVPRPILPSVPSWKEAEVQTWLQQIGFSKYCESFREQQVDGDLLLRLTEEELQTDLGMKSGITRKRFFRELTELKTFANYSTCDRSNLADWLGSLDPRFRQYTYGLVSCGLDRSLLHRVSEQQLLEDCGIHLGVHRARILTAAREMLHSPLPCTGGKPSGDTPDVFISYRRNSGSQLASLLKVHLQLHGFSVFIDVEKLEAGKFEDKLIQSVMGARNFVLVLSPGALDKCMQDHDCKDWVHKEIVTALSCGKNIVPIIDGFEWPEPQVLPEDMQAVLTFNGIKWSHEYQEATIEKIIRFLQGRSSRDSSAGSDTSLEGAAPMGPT
NRK1-HEK293T cells were seeded onto 150 cm^2 plates at 20×10^6 cells per plate. The next day, the cells were transfected with 15 μg ARM-SAM-TIR expression plasmid, SEQ ID NO: 1.
The cultures were supplemented with 1 mM NR at time of transfection to minimize toxicity from ARM-SAM-TIR overexpression. Forty-eight hours after transfection, cells were harvested, pelleted by centrifugation at 1,000 rpm (Sorvall ST 16R centrifuge, Thermo Fisher), and washed once with cold PBS (0.01 M phosphate buffered saline NaCl 0.138 M; KCl 0.0027 M; pH 7.4). The cells were resuspended in PBS with protease inhibitors (cOmplete™ protease inhibitor cocktail, Roche product #11873580001) and cell lysates were prepared by sonication (Branson Sonifer 450, output=3, 20 episodes of stroke). The lysates were centrifuged (12,000×g for 10 min at 4° C.) to remove cell debris and the supernatants (containing ARM-SAM-TIR protein) were stored at −80° C. for later use in the in vitro ARM-SAM-TIR NADase assay (see below). Protein concentration was determined by the Bicinchoninic (BCA) method and used to normalize lysate concentrations.
The enzymatic assay was performed in a 384-well polypropylene plate in Dulbecco's PBS buffer in a final assay volume of 20 μL. ARM-SAM-TIR lysate with a final concentration of 5 μg/mL was pre-incubated with the respective compound at 1% DMSO final assay concentration over 2 h at room temperature. The reaction was initiated by addition of 5 μM final assay concentration of NAD+ as substrate. After a 2 hr room temperature incubation, the reaction was terminated with 40 μL of stop solution of 7.5% trichloroactetic acid in acetonitrile. The NAD+ and ADPR concentrations were analyzed by a RapidFire High Throughput Mass Spectrometry System (Agilent Technologies, Santa Clara, Calif.) using an API4000 triple quadrupole mass spectrometer (AB Sciex Framingham, Mass.).
As for `[2H]C([2H])(C(=O)Nc1[nH]nc(-c2ccnnc2)c1C)C([2H])([2H])c1ccc(Cl)nc1` [Example 178], the half-inhibitory concentration (IC50) is less than 5 µM.

The compound `Cc1c(-c2ccncc2)n[nH]c1NC(=O)/C=C/c1c(F)cccc1F` [Example 247] returned a half-maximal inhibitory concentration (IC50) of 5 to 15 µM.

For the compound `N#Cc1cnccc1-c1nnc(NC(=O)CCc2ccc(Cl)cc2)[nH]1` [Example 225], the concentration for half-maximal inhibition (IC50) is less than 5 µM.

Take `Cn1cncc1-c1nnc(NC(=O)CCc2ccc(Cl)cc2)[nH]1` [Example 163]: the half-inhibitory concentration (IC50) is less than 5 µM.

`O=C(NCc1ccc(Cl)nc1)Nc1nnc(-c2ccncc2)[nH]1` [Example 165] had a half-maximal inhibitory concentration (IC50) of less than 5 µM.

The compound `O=C(Nc1cc(-c2ccncc2)n[nH]1)C(O)Cc1ccc(Cl)cc1` (stereo not shown) [Example 275] gave an IC50 of less than 5 µM.

Take `O=C(CCc1ccc(Cl)cc1)Nc1cc(-c2c(F)cncc2Br)n[nH]1` [Example 324]: the 50% inhibitory concentration (IC50) lay in the range of 5 to 15 µM.

Compound `O=C(CCc1ccc(F)c(F)c1)Nc1nnc(-c2ccncc2)[nH]1` [Example 16] gave an IC50 of less than 5 µM.

`CCOC(=O)c1c(-c2ccncc2)n[nH]c1NC(=O)CCc1ccc(Cl)cc1` [Example 187] had an IC50 of less than 5 µM.

As for `[2H]C([2H])([2H])c1c(-c2ccncc2)n[nH]c1NC(=O)C([2H])([2H])C([2H])([2H])c1ccc(Cl)nc1` [Example 150], the half-maximal inhibitory concentration (IC50) was less than 5 µM.

`O=C(Nc1nnc(-c2ccncc2)[nH]1)N1CCc2cc(Cl)ccc2C1` [Example 185] gave a half-maximal inhibitory concentration (IC50) of less than 5 µM.

The compound `Cn1c(CCC(=O)Nc2nnc(-c3ccncc3)[nH]2)nc2ccccc21` [Example 122] came in with an IC50 of 15 to 30 µM.

Compound `O=C(CCc1cn2ccccc2n1)Nc1nnc(-c2ccncc2)[nH]1` [Example 123] returned a concentration for half-maximal inhibition (IC50) of 15 to 30 µM.

In turn, `Cc1cnccc1-c1nnc(NC(=O)CCc2ccc(Cl)cc2)[nH]1` [Example 217] showed a concentration for half-maximal inhibition (IC50) of less than 5 µM.

On to `O=C(CCc1ccccc1)Nc1nnc(-c2ccncc2)[nH]1` [Example 146], for which the IC50 was less than 5 µM.

Regarding `O=C(CCc1ccc(Cl)cc1)Nc1nnc(-c2ccncc2Cl)[nH]1` [Example 59], the IC50 was less than 5 µM.

Regarding `O=C(CCc1ccc(Cl)cc1)Nc1nnc(-c2c(F)cncc2F)[nH]1` [Example 315], the half-inhibitory concentration (IC50) was 5 to 15 µM.

The compound `O=C(C[C@@H]1CCOc2cc(Cl)ccc21)Nc1nnc(-c2ccncc2)[nH]1` [Example 209] came in with an IC50 of less than 5 µM.

As to `O=C(CCc1ccc(Cl)cc1)Nc1nnc(-c2ccncn2)[nH]1` [Example 156], the IC50 is less than 5 µM.

`CNC(=O)Cc1c(-c2ccncc2)n[nH]c1NC(=O)CCc1ccc(Cl)cc1` [Example 263]: the IC50 is less than 5 µM.

`O=C(CCc1ccc(Cl)cc1Cl)Nc1nnc(-c2ccncc2)[nH]1` [Example 36]: the IC50 is less than 5 µM.

Take `O=C(CCc1ccc(C(F)F)cc1)Nc1nnc(-c2ccncc2)[nH]1` [Example 97]: the IC50 is less than 5 µM.

In the case of `Cc1ccc(OCC(=O)Nc2nnc(-c3ccncc3)[nH]2)c(C)c1` [Example 149], the 50% inhibitory concentration (IC50) fell in the range of 15 to 30 µM.

Consider `Cc1c(-c2ccncc2F)n[nH]c1NC(=O)CCc1ccc(Cl)s1` [Example 308], for which the concentration for half-maximal inhibition (IC50) was less than 5 µM.

For the compound `CC(Cc1ccccc1)C(=O)Nc1nnc(-c2ccncc2)[nH]1` (stereo not shown) [Example 95], the IC50 lay in the range of 5 to 15 µM.

The compound `Cc1c(-c2ccncc2)n[nH]c1NC(=O)C[C@@H]1CCOc2cc(Cl)ccc21` [Example 215] came in with an IC50 of less than 5 µM.

On to `O=C(CCc1ccc(Cl)cc1)Nc1[nH]nc(-c2ccncc2)c1C1CCC1` [Example 203], for which the half-maximal inhibitory concentration (IC50) was less than 5 µM.

Compound `Cn1nc(-c2ccncc2)nc1NC(=O)CCc1ccccc1` [Example 110] came in with a concentration for half-maximal inhibition (IC50) of more than 30 µM.

Compound `Cc1c(-c2ccncc2F)n[nH]c1NC(=O)[C@H]1C[C@H](c2ccc(Cl)cc2)C1` [Example 318] came in with a concentration for half-maximal inhibition (IC50) of less than 5 µM.

Take `O=C(CCc1ccc(F)cc1)Nc1cc(-c2ccncc2)n[nH]1` [Example 37]: the half-maximal inhibitory concentration (IC50) was less than 5 µM.

`O=C(CCc1ccc(Br)cc1)Nc1nnc(-c2ccncc2)[nH]1` [Example 105] came in with an IC50 of less than 5 µM.

`Cc1c(-c2ccncc2)n[nH]c1NC(CCc1ccc(Cl)cc1)C(F)(F)F` (stereo not shown) [Example 317]: the concentration for half-maximal inhibition (IC50) lay in the range of 5 to 15 µM.

For the compound `[2H]C([2H])(C(=O)Nc1nnc(-c2ccncc2)[nH]1)C([2H])([2H])c1ccc(Cl)cc1` [Example 169], the IC50 is less than 5 µM.

In turn, `N#Cc1ccc(CC(=O)Nc2nnc(-c3ccncc3)[nH]2)cc1` [Example 79] returned an IC50 of 5 to 15 µM.

In turn, `O=C(NCc1cccc(Cl)c1)Nc1nnc(-c2ccncc2)[nH]1` [Example 160] came in with an IC50 of less than 5 µM.

In the case of `Cc1cnccc1-c1n[nH]c(NC(=O)CCc2ccc(Cl)nc2)c1C` [Example 322], the IC50 is less than 5 µM.

In turn, `CN(C)C(Cc1ccccc1)C(=O)Nc1nnc(-c2ccncc2)[nH]1` (stereo not shown) [Example 52] came in with a half-inhibitory concentration (IC50) of more than 30 µM.

`Cc1c(-c2ccncc2)n[nH]c1NC(=O)COc1ccc(C#N)cc1` [Example 253] came in with an IC50 of 5 to 15 µM.

The compound `O=C(CCc1ccc(Cl)nc1)Nc1nc(-c2ccncc2)c[nH]1` [Example 1] yielded an IC50 of less than 5 µM.

Compound `Cc1c(-c2ccncc2)n[nH]c1N(C)C(=O)CCc1ccc(Cl)nc1` [Example 288] gave an IC50 of 5 to 15 µM.

`Cn1cc(CCC(=O)Nc2nnc(-c3ccncc3)[nH]2)cn1` [Example 133] came in with an IC50 of more than 30 µM.

Compound `O=C(C[C@H]1CCOc2cc(Cl)ccc21)Nc1nnc(-c2ccncc2)[nH]1` [Example 208] displayed an IC50 of less than 5 µM.

As to `CC(C)(C)OC(=O)N(CC(=O)Nc1nnc(-c2ccncc2)[nH]1)c1ccccc1` [Example 70], the IC50 was more than 30 µM.

In turn, `N#Cc1cnccc1-c1cc(NC(=O)CCc2ccc(Cl)cc2)[nH]n1` [Example 238] yielded an IC50 of less than 5 µM.

The compound `CC(C)(C)OC(=O)N1CCC(CC(=O)Nc2nnc(-c3ccncc3)[nH]2)c2ccccc21` (stereo not shown) [Example 64] showed an IC50 of more than 30 µM.

Take `O=C(CCc1ccncc1)Nc1nnc(-c2ccncc2)[nH]1` [Example 112]: the IC50 was 15 to 30 µM.

As for `O=C(C[C@@H]1CCCc2ccccc21)Nc1nnc(-c2ccncc2)[nH]1` [Example 91], the IC50 is less than 5 µM.

In turn, `Cc1c(-c2ccncc2)n[nH]c1NC(=O)CCc1ccc(Cl)c(F)c1` [Example 188] yielded an IC50 of less than 5 µM.

With `O=C(CCc1ccc(Cl)nc1)Nc1[nH]nc(-c2ccncc2)c1C1CCC1` [Example 204], the 50% inhibitory concentration (IC50) fell in the range of 5 to 15 µM.

`Cc1c(-c2ccncc2)n[nH]c1NC(=O)CCc1nc2ccccc2s1` [Example 245] had an IC50 of 5 to 15 µM.

Consider `O=C(CCc1ccc(Cl)s1)Nc1nc(-c2ccncc2)c[nH]1` [Example 159], for which the half-maximal inhibitory concentration (IC50) was less than 5 µM.

Compound `CC(C)(C)OC(=O)N(CC(=O)Nc1cc(-c2ccncc2)n[nH]1)c1ccc(Cl)cc1` [Example 5] showed an IC50 of less than 5 µM.

The compound `O=C(CC1CCOc2cc(Cl)ccc21)Nc1cc(-c2ccncc2)n[nH]1` (stereo not shown) [Example 172] displayed an IC50 of less than 5 µM.

As for `Cc1cccc(CCC(=O)Nc2nnc(-c3ccncc3)[nH]2)c1` [Example 140], the IC50 is less than 5 µM.

`O=C(CCc1ccc(Cl)nc1)Nc1nnc(-c2ccnnc2)[nH]1` [Example 21] registered an IC50 of less than 5 µM.

Consider `O=C(CCc1ccc(Cl)nc1)Nc1cc(-c2cccnc2)n[nH]1` [Example 267], for which the IC50 was in the range of 5 to 15 µM.

`O=C(Nc1cc(-c2ccncc2)n[nH]1)[C@H]1C[C@H](c2ccc(Cl)cc2)C1` [Example 181] came in with an IC50 of less than 5 µM.

Take `NC(=O)Cc1c(-c2ccncc2)n[nH]c1NC(=O)CCc1ccc(Cl)cc1` [Example 302]: the half-maximal inhibitory concentration (IC50) is less than 5 µM.

Turning to `O=C(CCc1ccc(C(F)(F)F)cc1)Nc1[nH]nc(-c2ccnnc2)c1Br` [Example 158], the IC50 was less than 5 µM.

`O=C(CCc1ccc(Cl)cc1)Nc1cc(-c2c(F)cncc2F)n[nH]1` [Example 300] returned an IC50 of less than 5 µM.

`O=C(C[C@@H]1CCOc2cc(Cl)ccc21)Nc1cc(-c2ccncc2)n[nH]1` [Example 213] registered an IC50 of less than 5 µM.

The compound `COCc1c(-c2ccncc2)n[nH]c1NC(=O)CCc1ccc(Cl)nc1` [Example 297] gave a concentration for half-maximal inhibition (IC50) of less than 5 µM.

For `O=C(CCc1ccc(Cl)cc1)Nc1nnc(-c2ccns2)[nH]1` [Example 157], the concentration for half-maximal inhibition (IC50) is less than 5 µM.

`O=C(CCc1ccc(Cl)nc1)Nc1[nH]nc(-c2ccnnc2)c1C1CC1` [Example 272] yielded a half-maximal inhibitory concentration (IC50) of less than 5 µM.

The compound `Cc1c(-c2ccncc2)n[nH]c1NC(=O)CCc1ccc(F)nc1` [Example 153] gave a concentration for half-maximal inhibition (IC50) of less than 5 µM.

For `Cc1c(-c2ccnnc2)n[nH]c1NC(=O)C[C@@H]1CCOc2cc(Cl)ccc21` [Example 279], the IC50 was less than 5 µM.

The compound `Cc1c(-c2ccncc2)n[nH]c1NC(=O)CCc1cc(F)ccc1F` [Example 249] yielded a half-inhibitory concentration (IC50) of less than 5 µM.

As usually defined, the IC50 is the concentration at which inhibition is half-maximal. Low values mean higher potency, high ones lower potency.
